Legend:
[1] = biological target: T1, bradykinin 1 receptor (B1R) of the rat (Rattus norvegicus, UniProt P97583); assay: Functional investigation on the rat bradykinin 1 receptor (B1R), Ca2+ FLIPR assay in CHO K1 rB1R cells; format: cell-based; details: test substance 10 μM, Ca2+ FLIPR, CHO K1 rB1R cells; for B1R Ant. r [10 μM] % Inhibition: B1R antagonism rat; for inhibition at 10 µM: CHO-K1, B1R antagonism rat, read-out: B1R Ant. r [10 μM] % Inhibition
T1 construct: expressed in transfected cells; host or cells: CHO K1 cells
T1 sequence (P97583 1-337): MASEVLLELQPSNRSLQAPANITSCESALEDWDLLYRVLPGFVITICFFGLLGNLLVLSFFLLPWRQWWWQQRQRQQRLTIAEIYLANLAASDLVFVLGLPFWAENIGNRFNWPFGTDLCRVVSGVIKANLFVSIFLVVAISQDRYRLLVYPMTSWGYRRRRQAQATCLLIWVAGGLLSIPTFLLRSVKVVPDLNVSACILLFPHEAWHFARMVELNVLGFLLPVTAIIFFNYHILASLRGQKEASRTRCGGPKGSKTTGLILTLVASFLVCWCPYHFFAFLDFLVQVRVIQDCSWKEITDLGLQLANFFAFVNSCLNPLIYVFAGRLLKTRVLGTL
In short: (§1)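 Fluo-4 Ca2+ readout, peak fluorescence. Stable CHO K1 transfectants; compound pre-incubated 10-20 min, then EC80 agonist—Lys-Des-Arg9-BK for hB1R, Des-Arg9-BK for rB1R. % inhibition vs maximal inhibition; IC50 from multiple concentrations, duplicate/triplicate, ≥2 independent runs.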

human μ opiate receptor = biological target: T2, human μ opiate receptor (Homo sapiens, UniProt P35372); assay: Affinity for the human μ opiate receptor ([3H]-naloxone displacement, CHO-K1 receptor membrane preparation, SPA); format: binding; details: 1.5 h, Table 3, to be read in the same way as Table 1; test concentration 1 μM; read-out: μ
T2 construct: purchased PerkinElmer Life Sciences, Zaventem, Belgium RB-HOM; host or cells: CHO-K1 cells (membrane preparation)
Protocol: Binding data of the compounds on the μ opioid receptor and data on the inhibition of reuptake of serotonin (5-HT) are given in Table 1. The data for the μ receptor were measured at a test concentration of 1 μM, and those for the serotonin reuptake at 10 μM. The values are stated in % inhibition.
Investigation of the Activity of the Compounds of the Invention Method for Determining the Affinity for the Human μ Opiate Receptor
The receptor affinity for the human p opiate receptor is determined in a homogeneous set-up in microtitre plates. For this, dilution series of the substances to be tested are incubated with a receptor membrane preparation (15-40 μg of protein/250 μl of incubation batch) of CHO-K1 cells which express the human p opiate receptor (RB-HOM receptor membrane preparation from PerkinElmer Life Sciences, Zaventem, Belgium) in the presence of 1 nmol/l of the radioactive ligand [^3H]-naloxone (NET719, PerkinElmer Life Sciences, Zaventem, Belgium) and 1 mg of WGA-SPA-Beads (wheat germ agglutinin SPA beads from Amersham/Pharmacia, Freiburg, Germany) in a total volume of 250 μl for 90 minutes at room temperature. 50 mmol/l of Tris-HCl supplemented with 0.06% of bovine serum albumin is used as the incubation buffer. 100 μmol/l of naloxone are additionally added for determination of the non-specific binding. After the end of the ninety-minute incubation time, the microtitre plates are centrifuged for 20 minutes at 1,000 g and the radioactivity is measured in a β-counter (Microbeta-Trilux, PerkinElmer Wallac, Freiburg, Germany). The percentage displacement of the radioactive ligand from its binding to the human p opiate receptor is determined at a concentration of the test substances of 1 μmol/l and stated as the percentage inhibition of the specific binding. Starting from the percentage displacement by various concentrations of the test substances, IC50 inhibitory concentrations which cause a 50 percent displacement of the radioactive ligand are calculated. By conversion by means of the Cheng-Prusoff relationship, Ki values for the test substances are obtained.

[2] = biological target: T3, human bradykinin 1 receptor (B1R) (Homo sapiens, UniProt P46663); assay: Functional investigation on the human bradykinin 1 receptor (B1R), Ca2+ FLIPR assay in CHO K1 hB1R cells; format: cell-based; details: test substance 10 μM, Ca2+ FLIPR, CHO K1 hB1R cells; for B1R Ant. h [10 μM] % Inhibition: B1R antagonism human; for inhibition at 10 µM: CHO-K1, B1R antagonism human, read-out: B1R Ant. h [10 μM] % Inhibition
T3 construct: expressed in transfected cells; host or cells: CHO K1 cells
T3 sequence (P46663 1-353): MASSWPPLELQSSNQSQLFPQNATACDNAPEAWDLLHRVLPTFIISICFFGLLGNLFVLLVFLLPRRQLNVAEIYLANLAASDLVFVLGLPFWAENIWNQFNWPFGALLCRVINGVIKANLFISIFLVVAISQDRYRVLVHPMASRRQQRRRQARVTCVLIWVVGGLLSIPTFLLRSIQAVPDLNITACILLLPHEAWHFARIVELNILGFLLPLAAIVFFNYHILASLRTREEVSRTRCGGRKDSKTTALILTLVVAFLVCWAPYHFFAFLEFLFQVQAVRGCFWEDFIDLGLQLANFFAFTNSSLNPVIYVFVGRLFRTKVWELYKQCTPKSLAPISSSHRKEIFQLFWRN
In short: as §1

T2 sequence (P35372 whole entry): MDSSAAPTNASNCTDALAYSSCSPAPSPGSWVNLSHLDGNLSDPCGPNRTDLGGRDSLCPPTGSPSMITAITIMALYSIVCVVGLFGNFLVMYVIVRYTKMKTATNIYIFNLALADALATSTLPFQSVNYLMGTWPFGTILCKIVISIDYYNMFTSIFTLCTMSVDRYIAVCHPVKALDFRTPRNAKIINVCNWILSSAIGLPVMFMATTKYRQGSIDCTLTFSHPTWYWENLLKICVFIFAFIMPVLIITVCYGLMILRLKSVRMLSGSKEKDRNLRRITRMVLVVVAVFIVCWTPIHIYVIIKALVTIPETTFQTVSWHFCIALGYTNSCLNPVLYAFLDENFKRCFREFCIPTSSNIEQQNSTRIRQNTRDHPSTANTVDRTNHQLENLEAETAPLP

Row | Compound | B1R Ant. r [10 μM] % Inhibition [1] [%] | inhibition at 1 µM (human μ opiate receptor) [%] | B1R Ant. h [10 μM] % Inhibition [2] [%] | inhibition at 10 µM [1] [%] | inhibition at 10 µM [2] [%]
1 | CN(CCOCC(=O)NC1CCC(C(c2ccccc2)N2CCCC2)CC1)S(=O)(=O)c1c(Cl)cc(Cl)cc1Cl (stereo not drawn) [Example 625, N-(4-(phenyl(pyrrolidin-1-yl)methyl)cyclohexyl)-2-(2-(2,4,6-trichloro-N-methylphenylsulfonamido)ethoxy)acetamide] | 57 | 72 | 100 | – | –
2 | CN(CCOCC(=O)NCC1CCC(C(c2ccccc2)N2CCCC2)CC1)S(=O)(=O)c1c(Cl)cc(Cl)cc1Cl (stereo not drawn) [Example 626, N-((4-(phenyl(pyrrolidin-1-yl)methyl)cyclohexyl)methyl)-2-(2-(2,4,6-trichloro-N-methylphenylsulfonamido)ethoxy)acetamide] | – | 71 | – | 47 | 105
3 | CN(CCOCC(=O)NC1CCC(C(c2ccccc2)N2CCCC2)CC1)S(=O)(=O)c1ccc(Cl)cc1Cl (stereo not drawn) [Example 627, 2-(2-(2,4-dichloro-N-methylphenylsulfonamido)ethoxy)-N-(4-(phenyl(pyrrolidin-1-yl)methyl)cyclohexyl)acetamide] | – | 69 | – | 35 | 75
4 | COc1cc(C)c(S(=O)(=O)N(C)CCOCC(=O)NC2CCC(C(c3ccccc3)N3CCCC3)CC2)c(C)c1 (stereo not drawn) [Example 628, 2-(2-(4-methoxy-N,2,6-trimethylphenylsulfonamido)ethoxy)-N-(4-(phenyl(pyrrolidin-1-yl)methyl)cyclohexyl)acetamide] | – | 36 | – | 89 | 105
5 | COc1cc(C)c(S(=O)(=O)N2CCC(OCC(=O)NC3CCC(C(c4ccccc4)N4CCCC4)CC3)C2)c(C)c1 (stereo not drawn) [Example 629, 2-(1-(4-methoxy-2,6-dimethylphenylsulfonyl)pyrrolidin-3-yloxy)-N-(4-(phenyl(pyrrolidin-1-yl)methyl)cyclohexyl)acetamide] | – | 37 | – | 67 | 96
6 | CN(CCOCC(=O)NC1CCC(C(c2ccccc2)N2CCCC2)CC1)S(=O)(=O)c1c(Cl)cc(C(F)(F)F)cc1Cl (stereo not drawn) [Example 630, 2-(2-(2,6-dichloro-N-methyl-4-(trifluoromethyl)phenylsulfonamido)ethoxy)-N-(4-(phenyl(pyrrolidin-1-yl)methyl)cyclohexyl)acetamide] | – | 72 | – | -11 | 50
7 | O=C(COC1CCCN(S(=O)(=O)c2c(Cl)cc(Cl)cc2Cl)C1)NC1CCC(C(c2ccccc2)N2CCCC2)CC1 (stereo not drawn) [Example 631, N-(4-(phenyl(pyrrolidin-1-yl)methyl)cyclohexyl)-2-(1-(2,4,6-trichlorophenylsulfonyl)piperidin-3-yloxy)acetamide] | – | 88 | – | 87 | 92
8 | COc1cc(C)c(S(=O)(=O)N2CCCC2COCC(=O)NC2CCC(C(c3ccccc3)N3CCCC3)CC2)c(C)c1 (stereo not drawn) [Example 632, 2-((1-(4-methoxy-2,6-dimethylphenylsulfonyl)pyrrolidin-2-yl)methoxy)-N-(4-(phenyl(pyrrolidin-1-yl)methyl)cyclohexyl)acetamide] | – | 68 | – | 75 | 105
9 | O=C(COCC1CCCN(S(=O)(=O)c2c(Cl)cc(Cl)cc2Cl)C1)NC1CCC(C(c2ccccc2)N2CCCC2)CC1 (stereo not drawn) [Example 633, N-(4-(phenyl(pyrrolidin-1-yl)methyl)cyclohexyl)-2-((1-(2,4,6-trichlorophenylsulfonyl)piperidin-3-yl)methoxy)acetamide] | – | 91 | – | 63 | 55
10 | CN(CCOCC(=O)NC1CCC(C(c2ccccc2)N2CCCC2)CC1)S(=O)(=O)c1c(Cl)cccc1Cl (stereo not drawn) [Example 634, 2-(2-(2,6-dichloro-N-methylphenylsulfonamido)ethoxy)-N-(4-(phenyl(pyrrolidin-1-yl)methyl)cyclohexyl)acetamide] | – | 68 | – | 38 | 92
11 | O=C(COC1CCN(S(=O)(=O)c2c(Cl)cc(Cl)cc2Cl)C1)NC1CCC(C(c2ccccc2)N2CCCC2)CC1 (stereo not drawn) [Example 635, N-(4-(phenyl(pyrrolidin-1-yl)methyl)cyclohexyl)-2-(1-(2,4,6-trichlorophenylsulfonyl)pyrrolidin-3-yloxy)acetamide] | – | 78 | – | 22 | 67
12 | CN(CCOCC(=O)NC1CCC(C(CCc2ccccc2)N2CCOCC2)CC1)S(=O)(=O)c1c(Cl)cc(Cl)cc1Cl (stereo not drawn) [Example 636, N-(4-(1-morpholino-3-phenylpropyl)cyclohexyl)-2-(2-(2,4,6-trichloro-N-methylphenylsulfonamido)ethoxy)acetamide] | – | 8 | – | 16 | 41
13 | CN(CCOCC(=O)NC1CCC(C(CCc2ccccc2)N2CCCCC2)CC1)S(=O)(=O)c1c(Cl)cc(Cl)cc1Cl (stereo not drawn) [Example 637, N-(4-(3-phenyl-1-(piperidin-1-yl)propyl)cyclohexyl)-2-(2-(2,4,6-trichloro-N-methylphenylsulfonamido)ethoxy)acetamide] | – | 35 | – | 45 | 85
14 | CN(CCOCC(=O)NC1CCC(C(c2ccccc2)N2CCOCC2)CC1)S(=O)(=O)c1c(Cl)cc(Cl)cc1Cl (stereo not drawn) [Example 638, N-(4-(morpholino(phenyl)methyl)cyclohexyl)-2-(2-(2,4,6-trichloro-N-methylphenylsulfonamido)ethoxy)acetamide] | 21 | 2 | 37 | – | –
15 | CN(CCOCC(=O)NCC1CCC(C(c2ccccc2)N2CCOCC2)CC1)S(=O)(=O)c1c(Cl)cc(Cl)cc1Cl (stereo not drawn) [Example 639, N-((4-(morpholino(phenyl)methyl)cyclohexyl)methyl)-2-(2-(2,4,6-trichloro-N-methylphenylsulfonamido)ethoxy)acetamide] | – | 3 | – | 41 | 53
16 | CN(CCOCC(=O)NCC1CCC(C(CCc2ccccc2)N2CCCC2)CC1)S(=O)(=O)c1c(Cl)cc(Cl)cc1Cl (stereo not drawn) [Example 640, N-((4-(3-phenyl-1-(pyrrolidin-1-yl)propyl)cyclohexyl)methyl)-2-(2-(2,4,6-trichloro-N-methylphenylsulfonamido)ethoxy)acetamide] | – | 27 | – | 63 | 101
17 | CN(CCOCC(=O)NCC1CCC(C(c2ccccc2)N2CCCC2)CC1)S(=O)(=O)c1ccc(Cl)cc1Cl (stereo not drawn) [Example 641, 2-(2-(2,4-dichloro-N-methylphenylsulfonamido)ethoxy)-N-((4-(phenyl(pyrrolidin-1-yl)methyl)cyclohexyl)methyl)acetamide] | – | 66 | – | 45 | 96
